# According to the kinase profiling compilation of Christmann-Franck et al. (2016):
# Assays:
# Assay in all cases: KINOMEscan competition binding
# Settings in all cases: compound 10.0 µM
# [1] = molecular target: ACVR1B (human) (UniProt P36896)
# [2] = molecular target: BMPR2 (human) (UniProt Q13873)
# [3] = molecular target: TESK1 (human) (UniProt Q15569)
# [4] = molecular target: TBK1 (human) (UniProt Q9UHD2)
# [5] = molecular target: CAMK2A (human) (UniProt Q9UQM7)
# [6] = molecular target: PHKG2 (human) (UniProt P15735)
# [7] = molecular target: PIM1 (human) (UniProt P11309)
# Chain of PIM1 (human) (P11309 whole entry, looked up): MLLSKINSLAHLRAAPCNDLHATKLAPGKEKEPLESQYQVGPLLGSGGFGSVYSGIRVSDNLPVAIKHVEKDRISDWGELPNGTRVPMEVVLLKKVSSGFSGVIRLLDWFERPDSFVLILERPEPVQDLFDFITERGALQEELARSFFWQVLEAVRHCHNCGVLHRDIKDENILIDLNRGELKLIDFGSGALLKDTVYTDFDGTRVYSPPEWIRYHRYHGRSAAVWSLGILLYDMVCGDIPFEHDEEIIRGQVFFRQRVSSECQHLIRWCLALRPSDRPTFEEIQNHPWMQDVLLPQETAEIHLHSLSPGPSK
# [8] = molecular target: LIMK1 (human) (UniProt P53667)
# [9] = molecular target: SIK1 (human) (UniProt P57059)
# Chain of SIK1 (human) (P57059 whole entry, looked up): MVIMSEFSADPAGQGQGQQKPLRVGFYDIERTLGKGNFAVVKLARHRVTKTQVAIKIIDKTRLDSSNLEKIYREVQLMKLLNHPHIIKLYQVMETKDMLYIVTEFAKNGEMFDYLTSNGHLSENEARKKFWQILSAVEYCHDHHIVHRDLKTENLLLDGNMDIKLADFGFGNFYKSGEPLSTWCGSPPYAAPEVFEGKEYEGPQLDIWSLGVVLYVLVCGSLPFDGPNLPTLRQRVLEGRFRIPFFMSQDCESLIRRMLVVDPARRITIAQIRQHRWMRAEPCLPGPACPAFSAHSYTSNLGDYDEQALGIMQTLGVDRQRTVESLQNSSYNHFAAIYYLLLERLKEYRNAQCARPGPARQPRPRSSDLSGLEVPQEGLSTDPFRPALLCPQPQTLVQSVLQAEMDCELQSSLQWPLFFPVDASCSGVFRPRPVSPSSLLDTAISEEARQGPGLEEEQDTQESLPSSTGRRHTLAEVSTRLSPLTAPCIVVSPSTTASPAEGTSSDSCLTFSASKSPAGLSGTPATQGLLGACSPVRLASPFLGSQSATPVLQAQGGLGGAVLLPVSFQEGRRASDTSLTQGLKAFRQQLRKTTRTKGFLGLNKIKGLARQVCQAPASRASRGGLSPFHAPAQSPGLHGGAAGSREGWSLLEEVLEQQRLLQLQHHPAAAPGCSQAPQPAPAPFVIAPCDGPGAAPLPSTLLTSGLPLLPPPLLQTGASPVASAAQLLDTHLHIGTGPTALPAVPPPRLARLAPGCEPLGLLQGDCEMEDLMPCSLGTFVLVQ
# [10] = molecular target: YES1 (human) (UniProt P07947)
# [11] = molecular target: PRKD1 (human) (UniProt Q15139)
# [12] = tested on: EGFR (human), P00533 [T790M]
# [13] = molecular target: CDKL1 (human) (UniProt Q00532)
# [14] = molecular target: KIT (human) (UniProt P10721)
# [15] = molecular target: CHEK2 (human) (UniProt O96017)
# [16] = molecular target: NEK2 (human) (UniProt P51955)
# [17] = molecular target: PDPK1 (human) (UniProt O15530)
# [18] = tested on: FLT3 (human), P36888 [ITD]
# [19] = molecular target: CSF1R (human) (UniProt P07333)
# Chain of CSF1R (human) (P07333 whole entry, looked up): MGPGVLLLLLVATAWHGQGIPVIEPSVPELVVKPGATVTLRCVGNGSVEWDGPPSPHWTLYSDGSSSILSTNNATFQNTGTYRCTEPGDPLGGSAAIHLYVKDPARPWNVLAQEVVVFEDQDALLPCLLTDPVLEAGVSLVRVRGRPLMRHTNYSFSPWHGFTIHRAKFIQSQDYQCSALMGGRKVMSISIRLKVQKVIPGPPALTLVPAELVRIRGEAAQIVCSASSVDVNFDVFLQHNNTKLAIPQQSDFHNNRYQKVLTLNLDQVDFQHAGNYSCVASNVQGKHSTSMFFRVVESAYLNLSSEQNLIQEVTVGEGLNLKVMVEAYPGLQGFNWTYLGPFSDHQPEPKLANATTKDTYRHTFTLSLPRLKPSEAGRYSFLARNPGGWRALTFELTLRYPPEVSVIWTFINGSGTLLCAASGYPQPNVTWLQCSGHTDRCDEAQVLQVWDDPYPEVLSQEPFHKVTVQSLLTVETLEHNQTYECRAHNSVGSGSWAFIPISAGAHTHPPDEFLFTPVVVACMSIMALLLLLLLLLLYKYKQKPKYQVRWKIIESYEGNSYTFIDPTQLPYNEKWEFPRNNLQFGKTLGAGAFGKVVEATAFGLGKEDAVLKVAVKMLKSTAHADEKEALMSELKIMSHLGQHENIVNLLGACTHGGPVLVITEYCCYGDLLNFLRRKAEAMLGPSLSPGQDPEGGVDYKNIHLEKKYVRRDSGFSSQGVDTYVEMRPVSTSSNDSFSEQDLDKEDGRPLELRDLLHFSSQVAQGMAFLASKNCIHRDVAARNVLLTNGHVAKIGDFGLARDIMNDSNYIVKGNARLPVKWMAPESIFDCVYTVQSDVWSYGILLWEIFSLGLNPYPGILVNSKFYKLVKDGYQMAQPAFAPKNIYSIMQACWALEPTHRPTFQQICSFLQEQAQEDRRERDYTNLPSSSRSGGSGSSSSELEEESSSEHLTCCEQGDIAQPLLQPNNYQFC
# [20] = molecular target: STK25 (human) (UniProt O00506)
# [21] = molecular target: GSK3A (human) (UniProt P49840)
# [22] = molecular target: ROCK1 (human) (UniProt Q13464)
# [23] = molecular target: MAP2K3 (human) (UniProt P46734)
# [24] = molecular target: PLK1 (human) (UniProt P53350)
# Chain of PLK1 (human) (P53350 whole entry, looked up): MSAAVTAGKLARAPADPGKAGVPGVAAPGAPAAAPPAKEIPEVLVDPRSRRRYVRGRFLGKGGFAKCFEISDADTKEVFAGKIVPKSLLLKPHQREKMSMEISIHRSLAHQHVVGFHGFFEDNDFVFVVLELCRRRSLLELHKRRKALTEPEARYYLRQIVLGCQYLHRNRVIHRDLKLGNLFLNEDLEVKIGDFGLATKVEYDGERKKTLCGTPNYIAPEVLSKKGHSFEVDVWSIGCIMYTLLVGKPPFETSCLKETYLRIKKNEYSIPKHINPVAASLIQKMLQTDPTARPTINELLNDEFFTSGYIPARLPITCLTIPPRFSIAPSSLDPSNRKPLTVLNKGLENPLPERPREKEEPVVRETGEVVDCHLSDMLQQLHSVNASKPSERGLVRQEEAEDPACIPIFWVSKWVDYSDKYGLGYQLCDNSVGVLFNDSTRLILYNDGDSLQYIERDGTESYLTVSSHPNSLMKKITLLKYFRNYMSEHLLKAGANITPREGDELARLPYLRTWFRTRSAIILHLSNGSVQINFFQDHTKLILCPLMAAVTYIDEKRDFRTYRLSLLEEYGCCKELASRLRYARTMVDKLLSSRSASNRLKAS
# [25] = molecular target: IRAK4 (human) (UniProt Q9NWZ3)
# [26] = molecular target: MLTK (human) (UniProt Q9NYL2)
# [27] = molecular target: SRC (human) (UniProt P12931)
# [28] = molecular target: MELK (human) (UniProt Q14680)
# [29] = molecular target: ACVR1 (human) (UniProt Q04771)
# [30] = molecular target: MAP3K10 (human) (UniProt Q02779)
# [31] = molecular target: DAPK3 (human) (UniProt O43293)
# [32] = molecular target: GSK3B (human) (UniProt P49841)
# [33] = molecular target: EIF2AK1 (human) (UniProt Q9BQI3)
# [34] = molecular target: PKN3 (M.tuberculosis) (UniProt Q6P5Z2)
# [35] = molecular target: LRRK2 (human) (UniProt Q5S007)
# [36] = tested on: FLT3 (human), P36888 [N841I]
# [37] = molecular target: MAPK15 (human) (UniProt Q8TD08)
# [38] = tested on: ABL1 (human), P00519 [M351T]
# [39] = molecular target: GAK (human) (UniProt O14976)
# Chain of GAK (human) (O14976 whole entry, looked up): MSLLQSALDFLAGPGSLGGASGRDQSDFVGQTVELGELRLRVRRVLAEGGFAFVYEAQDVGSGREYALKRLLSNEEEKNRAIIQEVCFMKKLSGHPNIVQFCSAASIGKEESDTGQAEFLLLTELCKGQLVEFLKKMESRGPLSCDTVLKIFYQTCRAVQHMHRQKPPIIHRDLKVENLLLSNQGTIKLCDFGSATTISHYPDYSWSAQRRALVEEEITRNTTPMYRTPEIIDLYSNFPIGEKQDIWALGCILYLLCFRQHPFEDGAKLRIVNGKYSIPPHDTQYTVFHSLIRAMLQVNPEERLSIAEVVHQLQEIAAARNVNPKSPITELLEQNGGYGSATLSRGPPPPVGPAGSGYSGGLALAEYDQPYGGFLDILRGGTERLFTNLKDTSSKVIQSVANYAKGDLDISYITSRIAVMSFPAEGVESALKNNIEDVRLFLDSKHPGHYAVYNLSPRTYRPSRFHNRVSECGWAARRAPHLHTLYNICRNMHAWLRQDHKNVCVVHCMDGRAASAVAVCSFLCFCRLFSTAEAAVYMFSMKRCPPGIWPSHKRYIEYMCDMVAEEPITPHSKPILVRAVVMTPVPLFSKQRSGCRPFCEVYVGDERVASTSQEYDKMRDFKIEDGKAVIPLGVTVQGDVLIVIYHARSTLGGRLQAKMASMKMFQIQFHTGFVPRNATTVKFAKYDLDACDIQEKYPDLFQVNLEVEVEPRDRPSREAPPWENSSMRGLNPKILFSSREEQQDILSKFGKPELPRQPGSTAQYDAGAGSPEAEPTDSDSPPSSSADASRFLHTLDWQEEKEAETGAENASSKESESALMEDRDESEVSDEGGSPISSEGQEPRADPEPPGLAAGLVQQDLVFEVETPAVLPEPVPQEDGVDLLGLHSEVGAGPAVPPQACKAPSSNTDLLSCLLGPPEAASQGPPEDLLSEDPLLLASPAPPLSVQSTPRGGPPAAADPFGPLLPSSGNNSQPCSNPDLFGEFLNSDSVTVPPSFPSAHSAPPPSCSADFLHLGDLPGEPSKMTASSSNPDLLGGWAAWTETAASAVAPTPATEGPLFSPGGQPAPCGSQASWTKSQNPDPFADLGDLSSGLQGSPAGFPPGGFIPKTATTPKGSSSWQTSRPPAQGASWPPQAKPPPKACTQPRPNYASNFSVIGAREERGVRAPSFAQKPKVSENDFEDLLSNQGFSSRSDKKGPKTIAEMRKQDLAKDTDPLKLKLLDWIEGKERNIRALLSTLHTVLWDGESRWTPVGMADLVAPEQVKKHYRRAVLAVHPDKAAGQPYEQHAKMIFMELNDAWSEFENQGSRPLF
# [40] = molecular target: MATK (human) (UniProt P42679)
# [41] = tested on: RET (human), P07949 [V804L]
# Chain of RET (human), P07949 [V804L] (P07949 whole entry V804L, looked up): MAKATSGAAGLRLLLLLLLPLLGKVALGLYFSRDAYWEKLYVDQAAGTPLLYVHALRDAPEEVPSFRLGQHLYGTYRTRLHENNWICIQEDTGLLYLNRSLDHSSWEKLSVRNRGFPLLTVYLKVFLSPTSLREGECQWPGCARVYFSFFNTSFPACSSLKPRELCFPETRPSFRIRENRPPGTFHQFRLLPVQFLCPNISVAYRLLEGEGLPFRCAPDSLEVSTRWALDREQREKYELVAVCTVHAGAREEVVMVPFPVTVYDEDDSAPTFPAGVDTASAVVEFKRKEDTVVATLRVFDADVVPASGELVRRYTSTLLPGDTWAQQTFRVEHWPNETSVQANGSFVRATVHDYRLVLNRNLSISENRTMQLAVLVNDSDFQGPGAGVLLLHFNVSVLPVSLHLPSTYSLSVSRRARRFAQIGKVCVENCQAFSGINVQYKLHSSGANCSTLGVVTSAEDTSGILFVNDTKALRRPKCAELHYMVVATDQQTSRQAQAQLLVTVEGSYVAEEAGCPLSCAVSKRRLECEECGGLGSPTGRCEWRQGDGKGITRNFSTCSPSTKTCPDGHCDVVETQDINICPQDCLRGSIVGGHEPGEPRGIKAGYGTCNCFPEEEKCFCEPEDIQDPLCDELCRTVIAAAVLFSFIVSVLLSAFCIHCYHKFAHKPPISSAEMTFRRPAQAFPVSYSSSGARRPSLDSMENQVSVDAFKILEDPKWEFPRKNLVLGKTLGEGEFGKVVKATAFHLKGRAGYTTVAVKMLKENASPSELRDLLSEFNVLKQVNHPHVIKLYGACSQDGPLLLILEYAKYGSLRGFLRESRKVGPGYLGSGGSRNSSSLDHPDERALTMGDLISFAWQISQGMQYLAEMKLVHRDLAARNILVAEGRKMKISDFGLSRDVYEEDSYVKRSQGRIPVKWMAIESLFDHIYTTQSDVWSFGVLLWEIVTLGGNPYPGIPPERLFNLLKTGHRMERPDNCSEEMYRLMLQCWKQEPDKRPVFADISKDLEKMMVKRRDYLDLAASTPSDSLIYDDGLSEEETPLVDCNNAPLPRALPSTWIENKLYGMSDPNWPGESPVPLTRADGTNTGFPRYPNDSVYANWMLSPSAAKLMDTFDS
compound,measurement,setting,value
COC(=O)Nc1ccc(-c2nc(N3CCOCC3)c3cnn(C4CCN(C(=O)OC)CC4)c3n2)cc1,"kinase still bound, per cent of control",[1],100%
same,"kinase still bound, per cent of control",[2],92%
same,"kinase still bound, per cent of control",[3],91%
same,"kinase still bound, per cent of control",[4],99%
same,"kinase still bound, per cent of control",[5],95%
same,"kinase still bound, per cent of control",[6],86%
same,"kinase still bound, per cent of control",[7],100%
same,"kinase still bound, per cent of control",[8],100%
same,"kinase still bound, per cent of control",[9],100%
same,"kinase still bound, per cent of control",[10],97%
same,"kinase still bound, per cent of control",[11],95%
same,"kinase still bound, per cent of control",[12],100%
same,per cent of control,[13],91%
same,"kinase still bound, per cent of control",[14],100%
same,"kinase still bound, per cent of control",[15],100%
same,"kinase still bound, per cent of control",[16],100%
same,"kinase still bound, per cent of control",[17],85%
same,"kinase still bound, per cent of control",[18],100%
same,"kinase still bound, per cent of control",[19],90%
same,"kinase still bound, per cent of control",[20],78%
same,"kinase still bound, per cent of control",[21],100%
same,"kinase still bound, per cent of control",[22],82%
same,"kinase still bound, per cent of control",[23],95%
same,"kinase still bound, per cent of control",[24],90%
same,"kinase still bound, per cent of control",[25],82%
same,"kinase still bound, per cent of control",[26],97%
same,"kinase still bound, per cent of control",[27],95%
same,"kinase still bound, per cent of control",[28],86%
same,"kinase still bound, per cent of control",[29],100%
same,"kinase still bound, per cent of control",[30],100%
same,"kinase still bound, per cent of control",[31],92%
same,"kinase still bound, per cent of control",[32],100%
same,"kinase still bound, per cent of control",[33],56%
same,"kinase still bound, per cent of control",[34],73%
same,"kinase still bound, per cent of control",[35],91%
same,"kinase still bound, per cent of control",[36],78%
same,"kinase still bound, per cent of control",[37],100%
same,"kinase still bound, per cent of control",[38],100%
same,"kinase still bound, per cent of control",[39],94%
same,"kinase still bound, per cent of control",[40],100%
same,"kinase still bound, per cent of control",[41],84%
CC(C)n1nc(-c2cc3cc(O)ccc3[nH]2)c2c(N)ncnc21,"kinase still bound, per cent of control",[1],11%
same,"kinase still bound, per cent of control",[2],0.1%
same,"kinase still bound, per cent of control",[3],17%
same,"kinase still bound, per cent of control",[4],84%
same,"kinase still bound, per cent of control",[5],53%
same,"kinase still bound, per cent of control",[6],12%
same,"kinase still bound, per cent of control",[7],26%
same,"kinase still bound, per cent of control",[8],73%
same,"kinase still bound, per cent of control",[9],13%
same,"kinase still bound, per cent of control",[10],3.2%
same,"kinase still bound, per cent of control",[11],100%
same,per cent of control,[13],100%
same,"kinase still bound, per cent of control",[14],0.8%
same,"kinase still bound, per cent of control",[15],19%
same,"kinase still bound, per cent of control",[16],75%
same,"kinase still bound, per cent of control",[17],96%
same,"kinase still bound, per cent of control",[19],33%
same,"kinase still bound, per cent of control",[20],53%
same,"kinase still bound, per cent of control",[21],74%
same,"kinase still bound, per cent of control",[22],61%
same,"kinase still bound, per cent of control",[23],1.7%
same,"kinase still bound, per cent of control",[24],87%
same,"kinase still bound, per cent of control",[25],44%
same,"kinase still bound, per cent of control",[26],29%
same,"kinase still bound, per cent of control",[28],10%
same,"kinase still bound, per cent of control",[29],0.1%
same,"kinase still bound, per cent of control",[30],53%
same,"kinase still bound, per cent of control",[31],2.8%
same,"kinase still bound, per cent of control",[32],91%
same,"kinase still bound, per cent of control",[33],93%
same,"kinase still bound, per cent of control",[34],24%
same,"kinase still bound, per cent of control",[35],4.8%
same,"kinase still bound, per cent of control",[36],5%
same,"kinase still bound, per cent of control",[37],54%
same,"kinase still bound, per cent of control",[39],6.2%
same,"kinase still bound, per cent of control",[40],60%
same,"kinase still bound, per cent of control",[41],12%
CCC(=O)N1CCN(c2ccc(-n3c(=O)ccc4cnc5ccc(-c6cnc7ccccc7c6)cc5c43)cc2C(F)(F)F)CC1,"kinase still bound, per cent of control",[1],45%
same,"kinase still bound, per cent of control",[2],85%
same,"kinase still bound, per cent of control",[3],58%
same,"kinase still bound, per cent of control",[4],93%
same,"kinase still bound, per cent of control",[5],93%
same,"kinase still bound, per cent of control",[6],100%
same,"kinase still bound, per cent of control",[7],80%
same,"kinase still bound, per cent of control",[8],15%
same,"kinase still bound, per cent of control",[9],80%
same,"kinase still bound, per cent of control",[10],74%
same,"kinase still bound, per cent of control",[11],99%
same,"kinase still bound, per cent of control",[12],100%
same,per cent of control,[13],100%
same,"kinase still bound, per cent of control",[15],100%
same,"kinase still bound, per cent of control",[16],90%
same,"kinase still bound, per cent of control",[17],100%
same,"kinase still bound, per cent of control",[18],29%
same,"kinase still bound, per cent of control",[19],24%
same,"kinase still bound, per cent of control",[20],84%
same,"kinase still bound, per cent of control",[21],93%
same,"kinase still bound, per cent of control",[22],53%
same,"kinase still bound, per cent of control",[23],80%
same,"kinase still bound, per cent of control",[24],85%
same,"kinase still bound, per cent of control",[25],90%
same,"kinase still bound, per cent of control",[26],22%
same,"kinase still bound, per cent of control",[27],95%
same,"kinase still bound, per cent of control",[28],50%
same,"kinase still bound, per cent of control",[29],28%
same,"kinase still bound, per cent of control",[30],99%
same,"kinase still bound, per cent of control",[31],82%
same,"kinase still bound, per cent of control",[32],100%
same,"kinase still bound, per cent of control",[33],57%
same,"kinase still bound, per cent of control",[34],64%
same,"kinase still bound, per cent of control",[35],81%
same,"kinase still bound, per cent of control",[36],8.8%
same,"kinase still bound, per cent of control",[37],79%
same,"kinase still bound, per cent of control",[38],100%
same,"kinase still bound, per cent of control",[39],57%
same,"kinase still bound, per cent of control",[40],97%
same,"kinase still bound, per cent of control",[41],66%
